These results are taken from patent publication US20080103209A1, “Compounds And Methods For Treating Non-Inflammatory Pain Using Ppar Alpha Agonists” (The Regents of The University of California, priority 2004, published 2008).

Molecules are shown by their SMILES.

In assay [1] the test system is mice. Nature of the assay: Magnesium sulfate-evoked writhing test. The class given is in vivo, mouse. The following applies: for average ED50, magnesium sulfate-evoked writhing / number of writhing episodes evoked by magnesium sulfate: subcutaneous, Swiss mice; for average ED50, magnesium sulfate-evoked writhing: n=8; for number of writhing episodes evoked by magnesium sulfate: GW7647 1-30, Wy-14643 4-80, PEA 1-20 mg-kg^−1. On the procedure: Mice received a single dose of magnesium sulfate (120 mg/kg, dissolved in 0.5 ml saline, i.p.) and subsequent writhing episodes were monitored for a period of 30 min thereafter. Drugs were administered in saline/Tween 80/polyethylenglycol, (90/5/5) subcutaneously, 30 minutes before magnesium sulfate.
Next, the effect of PPARα agonists on the nocifensive behavior elicited by intraperitoneal injection of magnesium sulfate in mice, a model of visceral pain (Calignano, et al, Eur J Pharmacol 419, 191-8. (2001)), was explored.
Writhing test. Magnesium sulfate was injected (120 mg-kg^−1 in 0.5 ml saline, i.p.) in 12-h food-deprived mice and measured writhing episodes for 30 min (Calignano, et al, Eur J Pharmacol 419, 191-8. (2001)). Drugs or vehicle were administered by subcutaneous injection 30 min before magnesium sulfate.
Background: In writhing tests, fewer writhes than in controls are read as antinociception.

Assay [2] concerns mice. The assay can be described thus: TPA-induced ear edema (irritant contact dermatitis). The class given is in vivo, mouse. The text has this:
In addition to rapid-onset analgesia, PEA also exerts prolonged anti-inflammatory effects [Benvenuti, et al., Boll Soc It Biol Sper 44, 809-813 (1968); Lambert, et al., Curr Med. Chem. 9, 663-74 (2002)], which are associated with the down-regulation of pro-inflammatory proteins such as nitric oxide synthase (NOS) [Costa, et al., Br J Pharmacol 137, 413-20. (2002)]. Two models of acute inflammation were used to examine whether such effects are mediated through PPARα. First, paw edema was induced in C57B16J wild-type and PPARα^−/− mice by local injection of the irritant, carrageenan [Cirino, et al., Eur J Pharmacol 166, 505-10 (1989)]. […] Next, ear edema was produced in CD1 mice by topical administration of the phorbol ester, 12-O-tetradecanoylphorbol-13-acetate (TPA) [Sheu, et al., J Invest Dermatol., 94-101. (2002)]. […] In a parallel set of experiments, the effects of PEA (20 μg) on TPA-induced edema were tested in C57B16J wild-type and PPARα^−/− mice. […] Together, these findings indicate that PEA reduces acute nociception and inflammation through activation of PPARα.
As previous described procedure [Sheu, et al., J Invest Dermatol., 94-101. (2002)], 12-O-tetradecanoylphorbol-13-acetate (TPA) was dissolved in acetone (0.03%, w v^−1) and topically delivered with a pipette to the inner and outer surfaces (10 μl/side) of mice ears. Experimental agents were dissolved in acetone and delivered topically (20 μl/side) 45 minutes and 4 hours after TPA. 18 hours after TPA administration, the mice were euthanized with CO2 and the ears punched (diameter=2 mm) four times. The 4 excised punches of skin were combined and weighed to assess edema.

A further assay addresses T1, human CB2 (Homo sapiens, UniProt P34972).
T1 construct: purchased Perkin-Elmer, Boston, Mass; host or cells: CHO cells (membranes)
The assay can be described thus: CB2 receptor binding, [3H]-WIN-55212-2 displacement in CB2-overexpressing CHO cell membranes.

The subject of another assay is PPARα mRNA. The assay can be described thus: PPARα mRNA expression in inflamed mouse skin. To be noted: topical to inflamed abdominal skin; PEA 450 μg, GW7647 755 μg. Format: in vivo.
In the next assay the test system is Swiss mice. The assay can be described thus: Prolonged carrageenan-induced paw oedema, hyperalgesia and oedema. Format: in vivo, mouse. The following applies: 30 mg-kg^−1 s.c. on the third day of carrageenan treatment. The text has this:
The ability of PPARα agonists to attenuate hyperalgesia was further explored in two mouse models of subchronic inflammation: (i) experimental arthritis elicited by intradermal injection of complete Freund's adjuvant (CFA) into the base of the tail (Whiteley et al., Current Protocols in Pharmacology, 2, 5.5.1-5.5.5. (2001)); and (ii) prolonged oedema induced by repeated carrageenan injections into the paw (Otterness et al., Methods Enzymol, 162, 320 (1988)). […] Both drugs, but not their vehicle, suppressed mechanical (FIG. 7A, 7B) and thermal (data not shown) sensitivity.
Carrageenan-induced paw oedema. An inflammatory response was initiated in the left hindpaw of male Swiss mice by injecting %-carrageenan (1% weight-vol^−1 in sterile saline, 50 μl) using a 27-gauge needle, and maintained it by repeating the injections on day 3, 7 and 14 after the first administration. Paw oedema was measured using a mouse plethysmometer (Ugo Basile, Italy) or by weighing the excised paw.
Mechanical hyperalgesia was determined by measuring paw withdrawal thresholds to an increasing pressure onto the dorsal surface of the paw using an analgesimeter (Ugo Basile, Italy) with a cut-off of 250 g. Withdrawal thresholds were measured on both the ipsilateral paw (inflamed or ligated) and contralateral paw (uninflamed or unligated) 60 min after subcutaneous drug administration.
Background: In the carrageenan paw model, swelling and tenderness develop within hours.

Where [3] appears, read: topical co-application, CD1 mice.

T1 sequence (P34972 whole entry): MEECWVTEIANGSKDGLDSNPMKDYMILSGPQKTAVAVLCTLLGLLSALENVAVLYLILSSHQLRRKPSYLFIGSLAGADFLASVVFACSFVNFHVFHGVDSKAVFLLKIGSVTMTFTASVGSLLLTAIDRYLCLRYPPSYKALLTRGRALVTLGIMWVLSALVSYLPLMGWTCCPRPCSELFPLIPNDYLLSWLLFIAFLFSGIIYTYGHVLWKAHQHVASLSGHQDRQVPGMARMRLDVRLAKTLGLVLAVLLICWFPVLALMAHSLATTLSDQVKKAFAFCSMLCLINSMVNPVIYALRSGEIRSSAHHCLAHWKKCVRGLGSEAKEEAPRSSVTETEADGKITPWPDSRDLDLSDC

Regarding `CCCCCCCCCCCCCCCC(=O)NCCO` [PEA, palmitoylethanolamide], the “magnesium sulfate induced writhing in PPARα−/− mice” value in the assay on mice [1] (PPARα−/− mice, 20 mg-kg^−1 s.c.) is “did not significantly modify”. Besides, in the assay with mice [1], the “average ED50, magnesium sulfate-evoked writhing” value stood at 9.9 mg/kg and the “number of writhing episodes evoked by magnesium sulfate” value is listed as “dose-dependently decreased the number of writhing episodes”. In addition, the “TPA-induced edema in wild-type and PPARα−/− mice” value with mice [2] (PEA 20 μg, C57Bl6J wild-type and PPARα−/− mice) is reported as “effective only in wild-type animals”. The “TPA-induced ear edema formation” value in the assay on mice [2] (setting [3]) is on record as “attenuated”. Besides, the “ED50, TPA-induced ear edema” value with mice [2] (topical co-application, CD1 mice, n=5) stood at 8.9 μg per ear. Further, the “[^3H]-WIN-55212-2 Binding (% of control)” value at human CB2 (Concentration 1 μM) is given as 106.2 ± 2.5 % of control. The “[^3H]-WIN-55212-2 Binding (% of control)” value at human CB2 (Concentration 10 μM) is given as 98.5 ± 4.2 % of control. Further, the “PPARα mRNA expression” value in the assay with PPARα mRNA was “increase in PPARα mRNA expression”. For the same molecule, in the assay with Swiss mice, the “mechanical sensitivity thresholds, carrageenan” value is recorded as “normalized mechanical sensitivity thresholds” and the “paw oedema, carrageenan” value is listed as “no effect”.

As to `CC(C)(Sc1ccc(CCN(CCCCC2CCCCC2)C(=O)NC2CCCCC2)cc1)C(=O)O` [GW7647], in the assay on mice [1], the “average ED50, magnesium sulfate-evoked writhing” value is 7.5 mg/kg and the “number of writhing episodes evoked by magnesium sulfate” value was “dose-dependently decreased the number of writhing episodes”. Moreover, the “anti-inflammatory activity on TPA-induced edema in PPARα−/− mice” value with mice [2] (PPARα−/− mice) is listed as “residual, albeit weak anti-inflammatory activity”. Also, in the assay on mice [2] (setting [3]), the “TPA-induced ear edema formation” value is given as “attenuated”. For the same molecule, the “[^3H]-WIN-55212-2 Binding (% of control)” value at human CB2 (Concentration 1 μM) is 102.1 ± 4.0 % of control. The “[^3H]-WIN-55212-2 Binding (% of control)” value on human CB2 (Concentration 10 μM) was 91.6 ± 4.1 % of control. Further, the “PPARα mRNA expression” value in the assay on PPARα mRNA is “increase in PPARα mRNA expression”. Besides, in the assay on Swiss mice, the “mechanical sensitivity thresholds, carrageenan” value is “normalized mechanical sensitivity thresholds” and the “paw oedema, carrageenan” value is “no effect”.
